Laboratory results from patent US4567165A, “N-Methanesulfonic acid derivatives of 3-demethoxyistamycin B” (Zaidan Hojin Biseibutsu Kagaku Kenkyu Kai, priority 1984, dated 1986).
≈ marks a conversion by molar mass, not a printed value.

Experiments:
Providencia Pv 16 = test: Minimum inhibitory concentration, standard serial dilution method on Mueller-Hinton agar; type: cell-based; settings: 17 hours; for Minimum Inhibitory concentration: 37° C.
Excerpt: (§1) Minimum inhibitory concentrations (mcg/ml) of the parent 3-demethoxyistamycin B were also estimated in the same manner for the comparison purpose and also are shown in Table 1.

[1] = system: Escherichia coli JR66/W677; test: as above; type: cell-based; settings: 37° C., 17 hours
Excerpt: as §1

[2] = system: Escherichia coli K-12 C600 R135; test: as above; type: cell-based; settings: 17 hours; for Minimum Inhibitory concentration: 37° C.
Excerpt: as §1

[3] = system: Staphylococcus aureus 209P; test: as above; type: cell-based; settings: for Minimum Inhibitory concentration: Staphylococcus aureus 209P, Mueller-Hinton agar, 37° C., 17 hours
Excerpt: as §1

[4] = system: Staphylococcus aureus Ap01; test: as above; type: cell-based; settings: 37° C., 17 hours
Excerpt: as §1

[5] = system: Pseudomonas aeruginosa TI-13; test: as above; type: cell-based; settings: 17 hours; for Minimum Inhibitory concentration: 37° C.
Excerpt: as §1

[6] = system: Pseudomonas aeruginosa GN315; test: as above; type: cell-based; settings: 37° C., 17 hours
Excerpt: as §1

[7] = system: Pseudomonas aeruginosa H9; test: as above; type: cell-based; settings: 37° C., 17 hours
Excerpt: as §1

Serratia marcescens = test: as above; type: cell-based; settings: 37° C., 17 hours
Excerpt: as §1

[8] = system: Pseudomonas aeruginosa A3; test: as above; type: cell-based; settings: 37° C., 17 hours
Excerpt: as §1

[9] = Acute toxicity, intravenous, in mice; settings: mouse, in vivo, mice (ICR, adult female), single administration in saline
Method: Acute toxicity of the various N-methanesulfonic acid derivatives of 3-demethoxyistamycin B of the invention has been determined by the following procedure:
A test compound or substance was dissolved in 0.25 ml of a physiological saline solution and the solution of the test compound or substance so prepared was intravenously administered into a series of mouse groups each consisting of six mice (ICR strain, adult female, body weight 20 g±0.5 g) as the test animal, so that the test compound or substance was given to each mouse. Acute toxicity of 3-demethoxyistamycin B was also estimated in the same manner as above for the comparison purpose.

[10] = system: Escherichia coli K-12 LA290 R55; test: Minimum inhibitory concentration, standard serial dilution method on Mueller-Hinton agar; type: cell-based; settings: K12LA290R55, 17 h, read-out: Minimum Inhibitory concentration
Excerpt: as §1

Escherichia coli K-12 = test: as above; type: cell-based; settings: K12, 37° C., 17 hours
Excerpt: as §1

[11] = system: Escherichia coli K-12 ML1629; test: as above; type: cell-based; settings: K12ML1629, 37° C., 17 hours
Excerpt: as §1

Escherichia coli JR225 = test: as above; type: cell-based; settings: JR225, 17 h, read-out: Minimum Inhibitory concentration
Excerpt: as §1

Escherichia coli K-12 R5 = test: as above; type: cell-based; settings: K12R5, 17 h, read-out: Minimum Inhibitory concentration
Excerpt: as §1

Molecule	Minimum Inhibitory concentration (Providencia Pv 16) [µg/mL]	Minimum Inhibitory concentration [1] [µg/mL]	Minimum Inhibitory concentration [2] [µg/mL]	Minimum Inhibitory concentration [3] [µg/mL]	Minimum Inhibitory concentration [4] [µg/mL]	Minimum Inhibitory concentration [5] [µg/mL]	Minimum Inhibitory concentration [6] [µg/mL]	Minimum Inhibitory concentration [7] [µg/mL]	Minimum Inhibitory concentration (Serratia marcescens) [µg/mL]	also measured
3-demethoxyistamycin B-di-N-methanesulfonicacid sodium salt [Compound (2)]	1.56	3.13	6.25	0.78	0.78	25	100	50	3.13	Minimum Inhibitory concentration [8]: 0.78 µg/mL
3-demethoxyistamycin B-mono-N-methanesulfonic acid sodium salt [Compound (1)]	–	–	6.25	–	–	25	100	50	–	–
3-demethoxyistamycin B-tetra-N-methanesulfonic acid sodium salt [Compound (4)]	1.56	6.25	–	–	1.56	–	–	50	3.13	–
3-demethoxyistamycin B-tri-N-methanesulfonic acid sodium salt [Compound (3)]	–	3.13	–	1.56	0.78	25	50	50	6.25	–
CNCC1CCC(N)C(OC2C(N)CCC(N(C)C(=O)CN)C2O)O1 (stereo not drawn) [3-Demethoxyistamycin B]	–	–	–	–	–	–	–	–	–	LD50 [9]: 100 to 200 mg/kg; MIC (Providencia Pv 16; PV16, 37° C.): 0.78 µg/mL (≈ 2.17 µM); MIC [1]: 0.78 µg/mL (≈ 2.17 µM); MIC [10]: 1.56 µg/mL (≈ 4.34 µM); MIC ([2]; K12C600R135, 37° C.): 0.78 µg/mL (≈ 2.17 µM); MIC (Escherichia coli K-12): 0.78 µg/mL (≈ 2.17 µM); MIC [11]: 0.78 µg/mL (≈ 2.17 µM); MIC (Escherichia coli JR225): 0.78 µg/mL (≈ 2.17 µM); MIC ([3]; Staphylococcus aureus, 209P, 17 h, read-out: Minimum Inhibitory concentration): < 0.2 µg/mL; MIC [4]: 0.39 µg/mL (≈ 1.08 µM); MIC ([5]; TI13, 37° C.): 6.25 µg/mL (≈ 17.4 µM); MIC [6]: 6.25 µg/mL (≈ 17.4 µM); MIC [7]: 12.5 µg/mL (≈ 34.8 µM); MIC (Serratia marcescens): 0.78 µg/mL (≈ 2.17 µM); MIC [8]: 0.39 µg/mL (≈ 1.08 µM); MIC (Escherichia coli K-12 R5): 1.56 µg/mL (≈ 4.34 µM)
